# Columns and labels:
# [1] = target: T1, hTHEM4 (Homo sapiens, UniProt Q5T1C6); test: product inhibition of thioesterase activity; assay type: biochemical
# [2] = target: T1, hTHEM4; test: substrate hydrolysed in the competitive inhibition assay; assay type: biochemical
# T1 sequence (Q5T1C6 37-240): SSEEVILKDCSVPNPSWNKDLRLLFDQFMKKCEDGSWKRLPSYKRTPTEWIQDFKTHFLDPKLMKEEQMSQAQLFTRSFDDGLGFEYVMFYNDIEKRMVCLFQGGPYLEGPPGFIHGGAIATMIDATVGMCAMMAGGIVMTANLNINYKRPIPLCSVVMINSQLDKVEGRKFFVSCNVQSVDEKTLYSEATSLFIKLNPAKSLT
Structure (SMILES),Ki [1] [µM],substrate hydrolysed in the competitive inhibition assay [2]
CC(C)(COP(=O)(O)OP(=O)(O)OC[C@H]1O[C@@H](n2cnc3c(N)ncnc32)[C@H](O)[C@@H]1OP(=O)(O)O)[C@@H](O)C(=O)NCCC(=O)NCCS [CoA],81 ± 1,
CCCCCCCCCC(=O)SCCNC(=O)CCNC(=O)[C@H](O)C(C)(C)COP(=O)(O)OP(=O)(O)OC[C@H]1O[C@@H](n2cnc3c(N)ncnc32)[C@H](O)[C@@H]1OP(=O)(O)O [decanoyl-CoA],,competitive inhibitor of hTHEM4-catalyzed decanoyl-CoA hydrolysis

# — PMC4066673 (Biochemistry, 2012)
